# Test results reported in article PMC8770581 (ChemMedChem, 2021).
# How the values were obtained:
# [1] = Absorption/emission maxima and fluorescence quantum yield of free ligand in PBS; assay type: physicochemical; settings: free ligand in PBS
# [2] = biological target: α-syn fibrils (Homo sapiens, UniProt P37840); experiment: α-Synuclein fibril/ligand saturation binding assay
# [3] = Kd α-syn (reported as no binding), α-syn fibrils, saturation binding
# [4] = Kd α-syn, Table 1, synthetic α-syn fibrils 2.5 μM, 1 hour, mean ± SD (n = 3)
Compound,Absmax [1],Emmax [1],"Kd [2, 3] [nM]","Kd [2, 4] [nM]"
"3-(3-(4-(Dimethylamino)phenyl)allylidene)chromane-2,4-dione [compound 27]",442,661,–,–
"O=C1/C(=C/C=C/c2ccc(Br)cc2)Cc2ccccc21 [compound 7, (E)-2-((E)-3-(4-Bromophenyl)allylidene)-2,3-dihydro-1H-inden-1-one]",332,430,≥ 2000,> 2000
"O=C1/C(=C/C=C/c2ccc([N+](=O)[O-])cc2)Cc2ccccc21 [compound 10, (E)-2-((E)-3-(4-Nitrophenyl)allylidene)-2,3-dihydro-1H-inden-1-one]",336,438,–,–
"O=C1/C(=C/C=C/c2ccc(Br)cc2)Cc2ccc(O)cc21 [compound 11, (E)-2-((E)-3-(4-Bromophenyl)allylidene)-6-hydroxy-2,3-dihydro-1H-inden-1-one]",335,429,≥ 2000,> 2000
"CN(C)c1ccc(/C=C/C=C2\Cc3ccc(O)cc3C2=O)cc1 [compound 12, (E)-2-((E)-3-(4-(Dimethylamino)phenyl)allylidene)-6-hydroxy-2,3-dihydro-1H-inden-1-one]",406,614,–,203 ± 15.9
"O=C1/C(=C/C=C/c2ccc([N+](=O)[O-])cc2)Cc2ccc(O)cc21 [compound 13, (E)-6-Hydroxy-2-((E)-3-(4-nitrophenyl)allylidene)-2,3-dihydro-1H-inden-1-one]",356,443,–,726 ± 23.6
"COc1cc(/C=C/C=C2\Cc3cc(F)cc(F)c3C2=O)ccc1O [compound 14, (E)-5,7-Difluoro-2-((E)-3-(4-hydroxy-3-methoxyphenyl)allylidene)-2,3-dihydro-1H-inden-1-one]",338,545,–,241 ± 47.9
"O=C1/C(=C/C=C/c2ccc([N+](=O)[O-])cc2)Cc2cc(F)cc(F)c21 [compound 15, (E)-5,7-Difluoro-2-((E)-3-(4-nitrophenyl)allylidene)-2,3-dihydro-1H-inden-1-one]",330,439,–,398.1 ± 3.9
"O=C1C(=C/C=C/c2ccccc2)C(=O)c2ccccc21 [compound 16, (E)-2-(3-Phenylallylidene)-1H-indene-1,3(2H)-dione]",331,421,–,> 2000
"O=C1C(=C/C=C/c2ccc(Br)cc2)C(=O)c2ccccc21 [compound 17, (E)-2-(3-(4-Bromophenyl)allylidene)-1H-indene-1,3(2H)-dione]",328,419,–,> 2000
"O=C1C(=C/C=C/c2ccc(F)cc2)C(=O)c2ccccc21 [compound 18, (E)-2-(3-(4-Fluorophenyl)allylidene)-1H-indene-1,3(2H)-dione]",332,421,–,> 2000
"CN(C)c1ccc(/C=C/C=C2C(=O)c3ccccc3C2=O)cc1 [compound 19, (E)-2-(3-(4-(Dimethylamino)phenyl)allylidene)-1H-indene-1,3(2H)-dione]",416,–,–,–
"COc1cc(/C=C/C=C2C(=O)c3ccccc3C2=O)cc(OC)c1O [compound 21, (E)-2-(3-(4-Hydroxy-3,5-dimethoxyphenyl)allylidene)-1H-indene-1,3(2H)-dione]",434,450,–,268 ± 11.7
"CN(C)c1ccc(-c2ccc(/C=C/C=C3\Cc4ccc(O)cc4C3=O)cc2)cc1 [compound 30, (E)-2-((E)-3-(4'-(Dimethylamino)-[1,1'-biphenyl]-4-yl)allylidene)-6-hydroxy-2,3-dihydro-1H-inden-1-one]",414,597,–,–
"N#Cc1ccc(-c2ccc(/C=C/C=C3\Cc4ccc(O)cc4C3=O)cc2)s1 [compound 33, 5-(4-((E)-3-((E)-6-Hydroxy-1-oxo-1,3-dihydro-2H-inden-2-ylidene)prop-1-en-1-yl)phenyl)thiophene-2-carbonitrile]",398,565,–,–
